We go through 12 molecules from patent publication US7071341B2, “α-Glucosidase inhibitors and their synthesis from a natural source” (Council of Scientific and Industrial Research, priority 2003, dated 2006).

“Also recorded” adds a separate entry of the source.

The subject of one data set is yeast α-glucosidase. Nature of the data set: α-glucosidase inhibitory assay by the chromogenic method. It is filed as biochemical. Conditions: for IC50: yeast α-glucosidase [Sigma], substrate p-nitrophenyl-α-D-glucopyranoside, pH 7.00, absorbance at 405 nm; for α-glucosidase inhibitory potency compared with the standard drug 1-deoxy nojirimycin: comparison in words. On the procedure: The α-glucosidase inhibitory assay was done by the chromogenic method. In brief 10 μl of test compounds dissolved in DMSO (5 mg/ml and subsequent dilutions) were incubated for 5 min. with 50 μl of yeast α-glucosidase [Sigma] enzyme prepared in 100 mM phosphate buffer (pH 7.00). After 5 minutes of incubation, 50 μl of 5 mM substrate (p-nitrophenyl-α-D-glucopyranoside [Sigma] prepared in the same buffer) was added. The pre-substrate and 5-min post-substrate addition absorbances were recorded at 405 nm spectrophotometrically. The increase in absorbance from pre-substrates addition to post substrates reaction were obtained.

Usually melting point stands for the temperature, or range, at which the solid turns liquid. For orientation: IC50 means the concentration that gives 50% inhibition. A high value points to weaker potency. Take `Oc1ccc(C2Oc3c(ccc(O)c3O)CC2O)cc1O` (single isomer, unassigned; (-)) [Compound 1, (−)-mesquitol]: the melting point came out at 252 °C. Also, in the data set with yeast α-glucosidase, the “α-glucosidase inhibitory activity, in words” value is reported as “potent α-glucosidase inhibitory activity” and the IC50 was 82.3 µM.
For `O=C(OC1Cc2ccc(O)c(O)c2OC1c1ccc(O)c(O)c1)c1ccccc1Cl` (single isomer, unassigned; (-)) [Compound 4I, (−)-3-O-(o-chlorobenzoyl) mesquitol], the melting point was determined as 252 °C. In addition, half-maximal inhibition against yeast α-glucosidase (IC50) required 43.3 µM.
On the same counts, the results for `CC(=O)OC1Cc2ccc(O)c(O)c2OC1c1ccc(O)c(O)c1` (single isomer, unassigned; (-)) [Compound 4a, (−)-3-O-acetyl mesquitol] are 78 °C and 46.3 µM.
On the same counts, the results for `CCCC(=O)OC1Cc2ccc(O)c(O)c2OC1c1ccc(O)c(O)c1` (single isomer, unassigned; (-)) [Compound 4b, (−)-3-O-butyryl mesquitol] are 80 °C and 46.2 µM.
Taken in the same sequence, the figures for `CCCCCC(=O)OC1Cc2ccc(O)c(O)c2OC1c1ccc(O)c(O)c1` (single isomer, unassigned; (-)) [Compound 4c, (−)-3-O-hexanoyl mesquitol] were 81 °C and 49.3 µM.
`CCCCCCCCCCCCCC(=O)OC1Cc2ccc(O)c(O)c2OC1c1ccc(O)c(O)c1` (single isomer, unassigned; (-)) [Compound 4e, (−)-3-O-myristoyl mesquitol]: the melting point was determined as 83 °C. The “α-glucosidase inhibitory potency compared with the standard drug 1-deoxy nojirimycin” value in the data set on yeast α-glucosidase (listed as myristoyl ester of (−) mesquitol) was “more potent α-glucosidase inhibitors than the standard drug 1-deoxy nojirimycin; also recorded: more potent than the standard α-glucosidase inhibitor 1-deoxy nojirimycin”. This molecule showed an IC50 at yeast α-glucosidase of 12.6 µM.
Consider `CCCCCCCCCCCCCCCC(=O)OC1Cc2ccc(O)c(O)c2OC1c1ccc(O)c(O)c1` (single isomer, unassigned; (-)) [Compound 4f, (−)-3-O-Palmitoyl mesquitol], for which the melting point was 87 °C. In the data set with yeast α-glucosidase (listed as palmitoyl ester of (−) mesquitol), the “α-glucosidase inhibitory potency compared with the standard drug 1-deoxy nojirimycin” value is “more potent α-glucosidase inhibitors than the standard drug 1-deoxy nojirimycin; also recorded: more potent than the standard α-glucosidase inhibitor 1-deoxy nojirimycin”. The molecule also returned an IC50 at yeast α-glucosidase of 9.56 µM.
Molecule `CCCCCCCCCCCCCCCCCC(=O)OC1Cc2ccc(O)c(O)c2OC1c1ccc(O)c(O)c1` (single isomer, unassigned; (-)) [Compound 4g, (−)-3-O-Steroyl mesquitol] returned a melting point of 90 °C. Besides, the IC50 at yeast α-glucosidase was 54.5 µM.
Molecule `O=C(OC1Cc2ccc(O)c(O)c2OC1c1ccc(O)c(O)c1)c1ccccc1` (single isomer, unassigned; (-)) [Compound 4h, (−)-3-O-benzoyl mesquitol] yielded a melting point of 248 °C. For the same molecule, in the data set on yeast α-glucosidase (listed as benzoyl ester of (−) mesquitol), the “α-glucosidase inhibitory potency compared with the standard drug 1-deoxy nojirimycin” value is on record as “more potent α-glucosidase inhibitor than the standard drug 1-deoxy nojirimycin”. This molecule also yielded an IC50 against yeast α-glucosidase of 77.8 µM.
On to `COc1ccc(C(=O)OC2Cc3ccc(O)c(O)c3OC2c2ccc(O)c(O)c2)cc1` (single isomer, unassigned; (-)) [Compound 4j, (−)-3-O-(p-methoxybenzoyl) mesquitol], for which the melting point is 254 °C. For the same molecule, on yeast α-glucosidase, the IC50 stood at 67.3 µM.
On to `CCCCCCCCCC(=O)O[C@H]1Cc2ccc(O)c(O)c2O[C@@H]1c1ccc(O)c(O)c1` [Compound 4d, (−)-3-O-Decanoyl mesquitol], for which the “α-glucosidase inhibitory potency compared with the standard drug 1-deoxy nojirimycin” value in the data set on yeast α-glucosidase (listed as decanoyl ester of (−) mesquitol) is listed as “more potent α-glucosidase inhibitors than the standard drug 1-deoxy nojirimycin; also recorded: more potent than the standard α-glucosidase inhibitor 1-deoxy nojirimycin”. Further, it took 13.5 µM to reach half-maximal inhibition against yeast α-glucosidase (IC50).
As for `O=C(O[C@H]1Cc2ccc(O)c(O)c2O[C@@H]1c1ccc(O)c(O)c1)c1ccc(F)cc1` [Compound 4k, (−)-3-O-(p-flourobenzoyl) mesquitol], the “α-glucosidase inhibitory potency compared with the standard drug 1-deoxy nojirimycin” value in the data set with yeast α-glucosidase (listed as p-flourobenzyl ester of (−) mesquitol) is given as “more potent α-glucosidase inhibitor than the standard drug 1-deoxy nojirimycin”. At yeast α-glucosidase, this molecule yielded an IC50 of 32.8 µM.
